Reference: patent publication US8168651B2, “Protein kinase modulators” (Cylene Pharmaceuticals, Inc., priority 2008, dated 2012)
One block for each molecule: values may come before it.

What was measured:
Test in all cases: Standardized radiometric kinase assays, percentage of activity at 0.5 μM;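 further: Read-out is ³³P-labelled substrate protein phosphorylated by each kinase, captured on filters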
[1] = target: each individual kinase of the panel (Homo sapiens, UniProt P54760); settings: for % Activity: EphB4(h)
[2] = target: each individual kinase of the panel (Homo sapiens, UniProt P07332); settings: for % Activity: Fes(h)
[3] = target: each individual kinase of the panel (Homo sapiens, UniProt Q06418); settings: for % Activity: Rse(h)
[4] = target: each individual kinase of the panel (Homo sapiens, UniProt P16234, D842V); settings: for % Activity: PDGFRα(D842V)(h)
[5] = target: each individual kinase of the panel (Homo sapiens, UniProt Q13976); settings: for % Activity: PKG1α(h)
[6] = target: each individual kinase of the panel (Homo sapiens, UniProt Q86V86); settings: for % Activity: Pim-3(h)
[7] = target: each individual kinase of the panel (Homo sapiens, UniProt O94804); settings: for % Activity: LOK(h)
[8] = target: each individual kinase of the panel (Homo sapiens, UniProt P24941); settings: for % Activity: CDK2/cyclinA(h)
[9] = target: each individual kinase of the panel (Homo sapiens, UniProt P11362); settings: for % Activity: FGFR1(h)
[10] = target: each individual kinase of the panel (Homo sapiens, UniProt O00418); settings: for % Activity: eEF-2K(h)
[11] = target: each individual kinase of the panel (Homo sapiens, UniProt P54756); settings: for % Activity: EphA5(h)
[12] = target: each individual kinase of the panel (Homo sapiens, UniProt P00533, L858R); settings: for % Activity: EGFR(L858R)(h)
[13] = target: each individual kinase of the panel (Homo sapiens, UniProt P08922)
[14] = target: each individual kinase of the panel (Homo sapiens, UniProt P17252); settings: for % Activity: PKCα(h)
[15] = target: each individual kinase of the panel (Homo sapiens, UniProt O43293); settings: for % Activity: ZIPK(h)
[16] = test system: each individual kinase of the panel; settings: for % Activity: MAPK1(h)
[17] = target: each individual kinase of the panel (Homo sapiens, UniProt P16591); settings: for % Activity: Fer(h)
[18] = target: each individual kinase of the panel (Homo sapiens, UniProt P43403); settings: for % Activity: ZAP-70(h)
[19] = target: each individual kinase of the panel (Homo sapiens, UniProt P00533, T790M); settings: for % Activity: EGFR(T790M)(h)
[20] = target: each individual kinase of the panel (Homo sapiens, UniProt P07949); settings: for % Activity: Ret(h)
[21] = target: each individual kinase of the panel (Homo sapiens, UniProt P23443); settings: for % Activity: p70S6K(h)
[22] = target: each individual kinase of the panel (Homo sapiens, UniProt P10721, D816H); settings: for % Activity: cKit(D816H)(h)
[23] = target: each individual kinase of the panel (Homo sapiens, UniProt P08631); settings: for % Activity: Hck(h)
[24] = target: each individual kinase of the panel (Homo sapiens, UniProt Q9NYY3); settings: for % Activity: Snk(h)
[25] = target: each individual kinase of the panel (Homo sapiens, UniProt Q15375); settings: for % Activity: EphA7(h)
[26] = target: each individual kinase of the panel (Homo sapiens, UniProt Q9P1W9); settings: for % Activity: Pim-2(h)
[27] = target: each individual kinase of the panel (Homo sapiens, UniProt P21802); settings: for % Activity: FGFR2(h)
[28] = target: each individual kinase of the panel (Homo sapiens, UniProt Q9NWZ3); settings: for % Activity: IRAK4(h)
[29] = target: each individual kinase of the panel (Homo sapiens, UniProt O14757); settings: for % Activity: CHK1(h)

each individual kinase of the panel (Homo sapiens, UniProt P08922), sequence (P08922 28-2347 limits assumed): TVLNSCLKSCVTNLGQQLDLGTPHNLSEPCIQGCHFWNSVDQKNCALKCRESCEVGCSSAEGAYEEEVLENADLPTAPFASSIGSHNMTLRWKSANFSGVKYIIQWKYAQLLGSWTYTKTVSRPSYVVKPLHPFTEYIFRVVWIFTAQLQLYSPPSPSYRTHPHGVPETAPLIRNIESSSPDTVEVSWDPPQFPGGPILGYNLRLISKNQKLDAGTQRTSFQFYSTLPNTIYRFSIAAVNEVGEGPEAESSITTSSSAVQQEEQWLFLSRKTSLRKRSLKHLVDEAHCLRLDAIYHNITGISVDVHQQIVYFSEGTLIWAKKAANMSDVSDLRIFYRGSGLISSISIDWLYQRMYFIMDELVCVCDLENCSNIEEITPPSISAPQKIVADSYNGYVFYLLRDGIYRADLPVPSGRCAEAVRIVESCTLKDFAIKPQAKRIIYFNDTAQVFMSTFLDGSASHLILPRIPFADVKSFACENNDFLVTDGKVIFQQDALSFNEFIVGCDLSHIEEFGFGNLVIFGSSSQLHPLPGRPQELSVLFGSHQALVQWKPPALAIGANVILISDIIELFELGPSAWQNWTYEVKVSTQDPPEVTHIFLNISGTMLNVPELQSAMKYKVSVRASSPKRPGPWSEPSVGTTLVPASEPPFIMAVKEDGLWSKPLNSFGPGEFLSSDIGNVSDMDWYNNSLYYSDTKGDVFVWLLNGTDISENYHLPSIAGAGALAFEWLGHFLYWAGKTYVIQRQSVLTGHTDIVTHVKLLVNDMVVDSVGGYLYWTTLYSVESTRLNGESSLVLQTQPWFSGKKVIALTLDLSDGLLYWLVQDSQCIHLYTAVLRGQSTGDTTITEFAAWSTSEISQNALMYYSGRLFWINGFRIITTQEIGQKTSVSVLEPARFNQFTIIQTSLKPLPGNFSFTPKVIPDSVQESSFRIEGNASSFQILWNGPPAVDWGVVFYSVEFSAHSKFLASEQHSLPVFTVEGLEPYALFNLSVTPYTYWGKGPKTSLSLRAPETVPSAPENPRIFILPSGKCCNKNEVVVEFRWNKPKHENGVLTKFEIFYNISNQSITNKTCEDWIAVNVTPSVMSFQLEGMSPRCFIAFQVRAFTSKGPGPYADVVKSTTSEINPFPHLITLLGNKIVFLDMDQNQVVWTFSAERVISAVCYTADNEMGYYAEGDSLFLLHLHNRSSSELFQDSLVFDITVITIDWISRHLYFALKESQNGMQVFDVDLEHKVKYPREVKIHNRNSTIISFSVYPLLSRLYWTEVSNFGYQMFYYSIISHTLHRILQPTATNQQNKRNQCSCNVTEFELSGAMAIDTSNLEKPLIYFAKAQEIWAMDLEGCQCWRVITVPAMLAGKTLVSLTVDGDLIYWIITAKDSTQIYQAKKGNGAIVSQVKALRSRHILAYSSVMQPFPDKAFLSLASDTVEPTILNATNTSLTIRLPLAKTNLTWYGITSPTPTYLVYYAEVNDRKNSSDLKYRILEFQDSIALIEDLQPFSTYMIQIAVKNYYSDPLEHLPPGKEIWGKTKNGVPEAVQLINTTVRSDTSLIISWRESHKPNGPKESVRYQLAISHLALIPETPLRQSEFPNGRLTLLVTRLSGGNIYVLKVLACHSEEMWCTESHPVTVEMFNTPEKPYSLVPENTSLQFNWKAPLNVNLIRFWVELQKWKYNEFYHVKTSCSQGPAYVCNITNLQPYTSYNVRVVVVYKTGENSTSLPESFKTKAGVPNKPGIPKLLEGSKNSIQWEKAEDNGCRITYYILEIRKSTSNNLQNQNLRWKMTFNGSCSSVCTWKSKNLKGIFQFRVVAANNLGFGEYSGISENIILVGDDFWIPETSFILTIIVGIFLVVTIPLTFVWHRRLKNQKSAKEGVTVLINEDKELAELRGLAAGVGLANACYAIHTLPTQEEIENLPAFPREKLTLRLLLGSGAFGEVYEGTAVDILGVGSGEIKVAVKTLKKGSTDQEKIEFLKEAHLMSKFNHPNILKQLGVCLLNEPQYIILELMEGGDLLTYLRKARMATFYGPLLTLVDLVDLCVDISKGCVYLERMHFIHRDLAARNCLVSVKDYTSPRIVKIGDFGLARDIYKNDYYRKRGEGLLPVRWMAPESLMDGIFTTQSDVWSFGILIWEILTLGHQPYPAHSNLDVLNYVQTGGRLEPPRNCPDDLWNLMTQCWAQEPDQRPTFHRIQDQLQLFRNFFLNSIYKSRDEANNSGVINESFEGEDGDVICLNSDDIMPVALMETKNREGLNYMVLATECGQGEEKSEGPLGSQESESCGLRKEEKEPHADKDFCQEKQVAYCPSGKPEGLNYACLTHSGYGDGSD
each individual kinase of the panel (Homo sapiens, UniProt P10721, D816H), sequence (P10721 26-976 D816H limits assumed): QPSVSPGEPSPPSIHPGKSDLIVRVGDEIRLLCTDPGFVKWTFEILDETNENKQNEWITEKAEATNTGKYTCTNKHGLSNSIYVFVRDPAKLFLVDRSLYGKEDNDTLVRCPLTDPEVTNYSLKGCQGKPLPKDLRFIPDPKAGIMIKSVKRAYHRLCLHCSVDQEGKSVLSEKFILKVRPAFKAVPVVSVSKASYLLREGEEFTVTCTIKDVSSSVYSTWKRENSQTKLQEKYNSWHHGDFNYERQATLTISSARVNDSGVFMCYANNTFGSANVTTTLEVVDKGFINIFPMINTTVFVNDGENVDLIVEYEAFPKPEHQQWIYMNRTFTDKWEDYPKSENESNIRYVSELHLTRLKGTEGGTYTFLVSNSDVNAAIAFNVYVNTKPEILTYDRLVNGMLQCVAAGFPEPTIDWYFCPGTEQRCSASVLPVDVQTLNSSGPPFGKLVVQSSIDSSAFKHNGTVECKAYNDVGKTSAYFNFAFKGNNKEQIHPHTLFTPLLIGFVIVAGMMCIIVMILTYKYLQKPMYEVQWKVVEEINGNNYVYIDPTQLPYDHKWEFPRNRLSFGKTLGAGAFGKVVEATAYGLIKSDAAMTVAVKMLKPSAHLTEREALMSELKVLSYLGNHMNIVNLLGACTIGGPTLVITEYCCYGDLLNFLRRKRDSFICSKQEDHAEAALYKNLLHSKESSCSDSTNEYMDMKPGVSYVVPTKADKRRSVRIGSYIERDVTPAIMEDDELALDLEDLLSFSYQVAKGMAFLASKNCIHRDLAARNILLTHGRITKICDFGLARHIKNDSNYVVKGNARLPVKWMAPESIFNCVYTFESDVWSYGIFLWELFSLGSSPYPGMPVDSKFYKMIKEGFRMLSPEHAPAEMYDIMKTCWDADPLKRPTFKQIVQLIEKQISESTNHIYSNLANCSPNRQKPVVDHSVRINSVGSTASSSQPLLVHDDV
each individual kinase of the panel (Homo sapiens, UniProt P11362), sequence (P11362 22-822 limits assumed): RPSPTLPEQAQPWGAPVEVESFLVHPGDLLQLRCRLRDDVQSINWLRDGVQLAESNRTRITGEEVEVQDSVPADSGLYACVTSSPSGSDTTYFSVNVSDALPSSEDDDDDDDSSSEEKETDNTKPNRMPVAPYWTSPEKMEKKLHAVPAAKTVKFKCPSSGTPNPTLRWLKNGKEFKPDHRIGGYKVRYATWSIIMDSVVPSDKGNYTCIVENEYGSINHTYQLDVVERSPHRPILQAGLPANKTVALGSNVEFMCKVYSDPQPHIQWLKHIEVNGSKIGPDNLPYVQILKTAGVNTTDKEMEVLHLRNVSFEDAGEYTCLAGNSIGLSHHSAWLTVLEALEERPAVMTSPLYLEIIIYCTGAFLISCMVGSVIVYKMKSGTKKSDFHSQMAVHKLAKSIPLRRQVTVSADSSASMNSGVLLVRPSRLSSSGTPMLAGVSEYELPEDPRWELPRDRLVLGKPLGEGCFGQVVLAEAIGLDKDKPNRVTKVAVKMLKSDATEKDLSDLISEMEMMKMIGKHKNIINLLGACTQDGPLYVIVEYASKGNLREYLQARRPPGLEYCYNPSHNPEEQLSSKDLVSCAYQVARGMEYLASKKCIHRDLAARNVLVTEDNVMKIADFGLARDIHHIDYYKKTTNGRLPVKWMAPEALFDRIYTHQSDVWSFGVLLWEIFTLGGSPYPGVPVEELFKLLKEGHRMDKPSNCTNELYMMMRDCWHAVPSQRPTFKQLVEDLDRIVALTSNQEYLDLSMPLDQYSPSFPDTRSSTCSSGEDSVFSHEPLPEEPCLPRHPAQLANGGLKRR
each individual kinase of the panel (Homo sapiens, UniProt P54756), sequence (P54756 25-1037 limits assumed): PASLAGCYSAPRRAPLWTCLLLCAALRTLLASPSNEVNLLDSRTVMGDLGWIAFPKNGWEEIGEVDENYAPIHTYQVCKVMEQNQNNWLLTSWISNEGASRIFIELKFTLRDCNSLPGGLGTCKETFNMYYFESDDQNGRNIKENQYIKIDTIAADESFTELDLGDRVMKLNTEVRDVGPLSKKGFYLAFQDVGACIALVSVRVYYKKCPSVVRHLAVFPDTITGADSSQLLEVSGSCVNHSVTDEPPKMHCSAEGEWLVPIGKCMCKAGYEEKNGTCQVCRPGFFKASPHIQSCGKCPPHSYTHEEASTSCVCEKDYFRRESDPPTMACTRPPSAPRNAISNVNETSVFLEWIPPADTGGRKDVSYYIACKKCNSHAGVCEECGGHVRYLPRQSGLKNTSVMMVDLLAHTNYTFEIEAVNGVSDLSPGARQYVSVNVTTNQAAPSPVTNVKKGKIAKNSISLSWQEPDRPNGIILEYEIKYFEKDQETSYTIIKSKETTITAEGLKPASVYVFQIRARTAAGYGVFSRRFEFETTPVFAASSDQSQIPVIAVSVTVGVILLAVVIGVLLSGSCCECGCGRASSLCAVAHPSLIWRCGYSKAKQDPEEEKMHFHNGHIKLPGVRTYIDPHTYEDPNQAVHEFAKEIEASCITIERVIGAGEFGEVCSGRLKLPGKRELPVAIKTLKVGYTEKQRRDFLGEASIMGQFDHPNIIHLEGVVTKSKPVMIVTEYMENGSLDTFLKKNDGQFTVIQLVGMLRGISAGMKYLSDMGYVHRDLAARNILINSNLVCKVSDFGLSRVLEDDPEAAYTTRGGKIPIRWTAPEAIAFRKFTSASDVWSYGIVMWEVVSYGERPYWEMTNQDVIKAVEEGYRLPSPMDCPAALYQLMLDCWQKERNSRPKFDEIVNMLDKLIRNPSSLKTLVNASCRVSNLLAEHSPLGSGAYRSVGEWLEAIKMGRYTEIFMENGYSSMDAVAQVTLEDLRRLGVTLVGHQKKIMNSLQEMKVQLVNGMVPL

SMILES: Clc1ccccc1Nc1nc2c(-c3nnc[nH]3)cccc2c2cnccc12 [A]
% Activity [1]: 87%
% Activity [2]: 84%
% Activity [3]: 109%
% Activity [4]: 17%
% Activity [5]: 40%
% Activity [6]: 12%
% Activity [7]: 63%
% Activity [8]: 31%
% Activity [9]: 100%
% Activity [10]: 111%
% Activity [11]: 95%
% Activity [12]: 56%
% Activity ([13]; Ros(h)): 90%
% Activity [14]: 99%
% Activity [15]: 100%
% Activity [16]: 77%
% Activity [17]: 90%
% Activity [18]: 97%
% Activity [19]: 53%
% Activity [20]: 43%
% Activity [21]: 77%
% Activity [22]: 8%
% Activity [23]: 61%
% Activity [24]: 79%
% Activity [25]: 96%
% Activity [26]: 2%
% Activity [27]: 93%
% Activity [28]: 12%
% Activity [29]: 108%

SMILES: C#Cc1cccc(Nc2nc3cc(C(=O)O)ccc3c3cncnc23)c1 [drawing 1135]
EPHB4 percentage of activity [1]: −44%
FES percentage of activity [2]: −39%
TYRO3 percentage of activity [3]: −9%
PDGFRA (D842V) percentage of activity [4]: −9%
PRKG1 percentage of activity [5]: −5%
PIM3 percentage of activity [6]: 13%
CDK2/cyclinE percentage of activity [8]: −13%
FGFR1 percentage of activity [9]: −3%
eEF−2K(h) percentage of activity [10]: −6%
EPHA5 percentage of activity [11]: −25%
ROS percentage of activity [13]: −10%
PRKCA percentage of activity [14]: 1%
DAPK3 percentage of activity [15]: 88%
MLCK percentage of activity [16]: −3%
PDGFRB (V561D) percentage of activity [16]: −4%
PRKCB2 percentage of activity [16]: 1%
FER percentage of activity [17]: −3%
ZAP70 percentage of activity [18]: −18%
EGFR(T790M) percentage of activity [19]: 8%
RET percentage of activity [20]: 14%
p70S6K percentage of activity [21]: 20%
cKit(D816H) percentage of activity [22]: −1%
HCK percentage of activity [23]: −11%
PLK2 percentage of activity [24]: −17%
EPHA7 percentage of activity [25]: 1%
PIM2 percentage of activity [26]: 25%
FGFR2 percentage of activity [27]: −7%
IRAK4 percentage of activity [28]: −19%
CHK1 percentage of activity [29]: 1%

Further lines, results first:

% Activity [1]: 105%
% Activity [2]: 94%
% Activity [3]: 87%
% Activity [4]: 15%
% Activity [5]: 34%
% Activity [6]: 65%
% Activity [7]: 87%
% Activity [8]: 17%
% Activity [9]: 93%
% Activity [10]: 93%
% Activity [11]: 93%
% Activity [12]: 56%
% Activity [14]: 97%
% Activity [15]: 19%
% Activity [16]: 86%
% Activity [17]: 103%
% Activity [18]: 106%
% Activity [19]: 76%
% Activity [20]: 73%
% Activity [21]: 87%
% Activity [22]: 9%
% Activity [23]: 62%
% Activity [24]: 82%
% Activity [25]: 90%
% Activity [26]: 46%
% Activity [27]: 94%
% Activity [28]: 81%
% Activity [29]: 91%
SMILES: NC(=O)c1cccc2c1nc(Nc1cccc(Cl)c1)c1ccncc12 [B]

EPHB4 percentage of activity [1]: −8%
FES percentage of activity [2]: 1%
TYRO3 percentage of activity [3]: 22%
PDGFRA (D842V) percentage of activity [4]: 78%
PRKG1 percentage of activity [5]: −4%
PIM3 percentage of activity [6]: −2%
LOK percentage of activity [7]: 72%
CDK2/cyclin A percentage of activity [8]: 53%
FGFR1 percentage of activity [9]: 23%
eEF−2K(h) percentage of activity [10]: −8%
EPHA5 percentage of activity [11]: 12%
EGFR(L858R) percentage of activity [12]: 24%
ROS percentage of activity [13]: 5%
PRKCA percentage of activity [14]: 9%
DAPK3 percentage of activity [15]: 87%
FER percentage of activity [17]: 6%
ZAP70 percentage of activity [18]: 2%
EGFR(T790M) percentage of activity [19]: 16%
RET percentage of activity [20]: 35%
p70S6K percentage of activity [21]: 36%
cKit(D816H) percentage of activity [22]: 87%
HCK percentage of activity [23]: 26%
PLK2 percentage of activity [24]: 30%
EPHA7 percentage of activity [25]: 5%
PIM2 percentage of activity [26]: 6%
FGFR2 percentage of activity [27]: 11%
IRAK4 percentage of activity [28]: 4%
CHK1 percentage of activity [29]: 13%
SMILES: C#Cc1cccc(Nc2nc3cc(C(=O)O)ccc3c3cnccc23)c1 [drawing 1137]

EPHB4 percentage of activity [1]: −16%
FES percentage of activity [2]: −2%
TYRO3 percentage of activity [3]: 2%
PDGFRA (D842V) percentage of activity [4]: 64%
PRKG1 percentage of activity [5]: 4%
LOK percentage of activity [7]: 56%
CDK2/cyclin A percentage of activity [8]: 53%
FGFR1 percentage of activity [9]: 17%
eEF−2K(h) percentage of activity [10]: −3%
EPHA5 percentage of activity [11]: 8%
EGFR(L858R) percentage of activity [12]: 63%
ROS percentage of activity [13]: −3%
PRKCA percentage of activity [14]: 1%
DAPK3 percentage of activity [15]: 34%
FER percentage of activity [17]: 8%
ZAP70 percentage of activity [18]: −2%
EGFR(T790M) percentage of activity [19]: 43%
p70S6K percentage of activity [21]: 8%
cKit(D816H) percentage of activity [22]: 63%
HCK percentage of activity [23]: 28%
PLK2 percentage of activity [24]: 9%
EPHA7 percentage of activity [25]: 0%
FGFR2 percentage of activity [27]: 9%
IRAK4 percentage of activity [28]: 12%
CHK1 percentage of activity [29]: −1%
SMILES: NC(=O)c1ccc2c(c1)nc(Nc1cccc(Cl)c1)c1ccncc12 [drawing 1138]
